Measured values reported in patent US20140127231A1, “p38 MAPK Pathway Inhibitors as Female-Specific Therapeutics” (UNIVERSITY OF VERMONT, priority 2012, published 2014).
“Also recorded” adds a separate entry of the source.

Key:
[1] = system: TH17 and TH1 cells in CNS-infiltrating cells; test: CNS-infiltrating cells of treated EAE mice, intracellular cytokine staining and flow cytometry; format: in vivo, C57BL/6J (B6) mice; conditions: female B6 mice treated daily, D30 post-immunization
Source text: (§1) Female B6 mice were immunized for EAE as described for FIG. 1 and treated daily with carrier or SB. On D30 post-immunization, CNS (brain and spinal cord) cells were harvested and analyzed by intracellular staining and flow cytometry. Relative percentages (out of CD4+TCRβ+ population) of IL-17+, IFN-γ+, or IL-17+ IFN-γ+ cells (FIG. 2A), and percentages of CD4+TCRβ+ cells (out of CD45+ cells) (FIG. 2B). DLN cells were collected on D20 and restimulated with MOG35-55 for 3 days. Production of IFN-γ+(FIG. 2C) or IL-17 (FIG. 2D) was assessed by ELISA.
EAE was induced in female C57BL/6J mice as described previously (Noubade et al., 2007, J Clin Invest., 117(11):3507-3518). Mice were injected subcutaneously with an emulsion containing 200 μg of MOG35-55 peptide ([…] (SEQ ID NO: 1) and complete Freund adjuvant (CFA; Sigma-Aldrich) supplemented with 200 μg of Mycobacterium tuberculosis H37RA (Difco Laboratories) in the posterior right and left flank; 1 week later, all mice were similarly injected at 2 sites on the right and left flank anterior of the initial injection sites (2×MOG35-55+CFA). Mice received 5 mg/kg/d SB203580 dihydrochloride (Tocris) by IP injection in a total volume of 200 μL or an equal volume of carrier every day from the day of immunization.
Animals were perfused with saline and brains and spinal cords removed. A single-cell suspension was obtained and passed through a 70-μm strainer. Mononuclear cells were obtained by Percoll gradient (37%/70%) centrifugation and collected from the interphase. Cells were washed and stimulated for 4 hours with PMA/ionomycin in the presence of brefeldin A (Golgi Plug; BD Biosciences). […]
(§2) To examine the mechanism of EAE prevention by SB, the TH1 and TH17 effector subsets were analyzed in treated female mice. […] On D30 post-immunization, CNS (brain and spinal cord) cells were harvested and analyzed by intracellular staining and flow cytometry. […] Draining lymph node (DLN) cells were collected on D20 and restimulated with MOG35-55 for 3 days, and production of IFN-γ and IL-17 was assessed by ELISA.

[2] = system: Draining lymph node (DLN) cells; test: Draining lymph node cells of treated EAE mice restimulated with MOG35-55, cytokine ELISA; format: in vivo, C57BL/6J (B6) mice; conditions: DLN cells collected D20, restimulated with MOG35-55 for 3 days
Source text: as §1
EAE was induced in female C57BL/6J mice as described previously (Noubade et al., 2007, J Clin Invest., 117(11):3507-3518). […]
as §2

[3] = system: Naïve CD4+ T cells cultured under TH17 polarizing conditions; test: In vitro TH17 differentiation of CD4+ T cells, IL-17 production; format: cell-based, mice; conditions: 3 days
Procedure: Naïve CD4+ T cells were purified by negative selection and cultured under TH17 polarizing conditions for 3 days in the presence of SB20350 (5 μM if not otherwise indicated). IL-17 secretion was analyzed by ELISA (FIG. 3A). Relative IL-17 mRNA was assessed by qRT-PCR (FIG. 3B). IL-17 levels were assessed using intracellular staining and flow cytometry (FIG. 3C).
Total CD4 T cells were isolated from spleen and lymph nodes as previously described (Noubade et al., 2007, J Clin Invest., 117(11):3507-3518), by negative selection for CD8-, MHC class II-, NK1.1- and CD11b-positive cells using magnetic beads from QIAGEN. For FACS sorting, negatively selected CD4 T cells were stained with anti-TCRβ-allophycocyanin and anti-CD4-Texas Red (Invitrogen), and sorted using a FACSAria cell sorting system (BD Biosciences). Th17 CD4 T cells were generated by activating total CD4 T cells (1×10^6 cells/mL) in RPMI containing 10% FBS (Hyclone), with plate bound anti-CD3 (5 μg/mL) and soluble anti-CD28 (1 μg/mL) mAbs from BD Pharmingen in the presence of 1 ng/mL TGFβ (PeproTech Inc), 30 ng/mL IL-6 (R&D Systems), 10 μg/mL anti-IFNγ, and 10 μg/mL anti-IL-4 mAbs. […]
For intracellular cytokine staining, either FACS-sorted or total CD4 T cells polarized to Th17 cells in the absence or the presence of 5 μM SB203580 were stimulated with 5 ng/mL PMA, 250 ng/mL ionomycin, and 2 μM monensin (Sigma-Aldrich) for the last 4 hours of culture. […] Cells were collected using a LSR II cytometer (BD Biosciences) and analyzed using FlowJo software (TreeStar Inc).
Total RNA was extracted from CD4 T cells using RNeasy RNA isolation reagent (QIAGEN) as recommended by the manufacturer. The generated cDNA was used in quantitative real-time PCR using the assay-on-demand (AOD) TaqMan probe and primers for IL-17A and β2-microglobulin (Applied Biosystems). β2-microglobulin was used as a reference gene and relative mRNA levels were calculated using the comparative CT method.
IL-17 production was analyzed by various methods including ELISA, qRT-PCR, and intracellular staining and flow cytometry.

C[S+]([O-])c1ccc(-c2nc(-c3ccncc3)c(-c3ccc(F)cc3)[nH]2)cc1 (centres unmarked) [SB203580]
IFN-γ production by TH1 cells ([1]; CNS cells): did not suppress IFN-γ production | IL-17 production by TH17 cells ([1]; CNS cells, listed as SB): inhibits IL-17 production by TH17 cells; also recorded: specifically inhibited IL-17 production; also recorded: only partially inhibits IL-17 production | Percentage or number of infiltrating CD4+ T cells in the CNS [1]: did not decrease the percentage or number of infiltrating CD4+ T cells | IFN-γ production (ELISA) [2]: did not decrease | IL-17 production (ELISA) [2]: specifically inhibited IL-17 production | Cellular IL-17 protein levels (intracellular staining, flow cytometry) ([3]; 5 μM): decreased | IL-17 mRNA levels (qRT-PCR) ([3]; 5 μM): not significantly affected | IL-17 production / secretion (ELISA) ([3]; inhibitor present, listed as SB): suppressed IL-17 production in a dose-dependent manner; also recorded: decreased; also recorded: reduced IL-17 production in vitro; also recorded: inhibits IL-17 production at a post-transcriptional level
